Assay results: ChEMBL document CHEMBL1137405, “Structural basis for the structure-activity relationships of peroxisome proliferator-activated receptor agonists” (J Med Chem, 2006)
pEC50: −log10 of the molar value.

Key:
[1] = target: T1, Peroxisome proliferator-activated receptor alpha (Homo sapiens) (UniProt Q07869); assay: (§1) Activity at human PPAR alpha in Huh7 cells by transactivation assay; format: cell-based; details: Huh-7, filed as agonist
T1 sequence (whole entry): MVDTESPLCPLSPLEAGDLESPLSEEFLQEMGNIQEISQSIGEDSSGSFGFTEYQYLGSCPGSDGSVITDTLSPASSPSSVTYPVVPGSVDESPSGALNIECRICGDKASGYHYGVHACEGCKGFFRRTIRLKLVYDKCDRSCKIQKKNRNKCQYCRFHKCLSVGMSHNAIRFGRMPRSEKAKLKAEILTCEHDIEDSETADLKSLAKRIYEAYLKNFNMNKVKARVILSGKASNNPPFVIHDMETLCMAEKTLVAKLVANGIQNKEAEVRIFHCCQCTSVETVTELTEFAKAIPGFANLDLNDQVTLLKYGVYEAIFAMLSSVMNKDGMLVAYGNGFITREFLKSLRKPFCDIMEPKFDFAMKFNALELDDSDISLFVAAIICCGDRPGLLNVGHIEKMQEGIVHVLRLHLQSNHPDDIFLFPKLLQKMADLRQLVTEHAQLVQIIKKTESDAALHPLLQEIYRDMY

[2] = target: T2, Peroxisome proliferator-activated receptor alpha (Homo sapiens, UniProt Q07869); assay: as §1; format: cell-based, Huh-7
T2 sequence (Q07869 whole entry): T1 sequence (whole entry)

[3] = target: T3, Peroxisome proliferator-activated receptor delta (Homo sapiens, UniProt Q03181); assay: Activity at human PPAR delta in Huh7 cells by transactivation assay; format: cell-based, Huh-7
T3 sequence (Q03181 whole entry): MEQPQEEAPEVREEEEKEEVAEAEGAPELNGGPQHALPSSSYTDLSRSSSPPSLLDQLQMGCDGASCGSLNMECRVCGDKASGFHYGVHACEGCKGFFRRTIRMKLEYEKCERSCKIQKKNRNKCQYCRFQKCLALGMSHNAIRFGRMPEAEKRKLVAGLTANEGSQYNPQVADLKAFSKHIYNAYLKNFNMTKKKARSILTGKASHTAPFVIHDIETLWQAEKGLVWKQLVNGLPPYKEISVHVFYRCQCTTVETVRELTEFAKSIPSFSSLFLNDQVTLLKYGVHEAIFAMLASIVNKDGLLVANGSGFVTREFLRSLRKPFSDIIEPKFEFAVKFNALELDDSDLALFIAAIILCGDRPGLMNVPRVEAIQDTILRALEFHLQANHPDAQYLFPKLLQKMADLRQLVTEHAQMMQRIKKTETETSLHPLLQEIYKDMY

[4] = target: T4, Peroxisome proliferator-activated receptor gamma (Homo sapiens, UniProt P37231); format: cell-based, Huh-7
T4 sequence (P37231 whole entry): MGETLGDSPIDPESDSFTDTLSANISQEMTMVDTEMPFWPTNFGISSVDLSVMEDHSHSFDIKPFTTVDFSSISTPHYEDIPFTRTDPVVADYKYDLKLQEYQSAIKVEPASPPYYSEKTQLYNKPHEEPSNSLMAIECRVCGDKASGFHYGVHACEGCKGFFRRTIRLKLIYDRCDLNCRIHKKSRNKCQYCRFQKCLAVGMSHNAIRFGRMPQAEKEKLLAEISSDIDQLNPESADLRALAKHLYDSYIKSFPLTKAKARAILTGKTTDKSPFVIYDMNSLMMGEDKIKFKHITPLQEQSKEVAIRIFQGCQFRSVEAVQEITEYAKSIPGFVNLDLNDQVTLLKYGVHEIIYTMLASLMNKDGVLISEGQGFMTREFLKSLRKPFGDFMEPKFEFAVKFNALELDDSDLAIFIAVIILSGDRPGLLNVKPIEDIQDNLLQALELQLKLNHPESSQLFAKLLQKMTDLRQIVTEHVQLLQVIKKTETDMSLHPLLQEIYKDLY
Description: Activity at human PPAR gamma in Huh7 cells by transactivation assay

Activity [1] | pEC50 [2] | pEC50 [3] | pEC50 [4] | SMILES
– | 5.68 | 5.16 | 5.46 | CCCc1c(OCCCn2ccc3ccc(OCC(=O)O)cc32)ccc2cc(C(=O)c3ccccc3)ccc12
– | 5.96 | 5.33 | 6.33 | CCCc1c(OCCCn2ccc3ccc(OC(C)(C)C(=O)O)cc32)ccc2cc(C(=O)c3ccccc3)ccc12
Agonist | 7.49 | < 5.00 | 5.66 | CCCc1c(OCCCn2ccc3cc(OCC(=O)O)ccc32)ccc2cc(C(=O)c3ccccc3)ccc12
Agonist | – | – | – | CCCc1c(OCCCOc2ccc3c(ccn3CC(=O)O)c2)ccc2cc(C(=O)c3ccccc3)ccc12
– | 6.69 | < 5.00 | 5.37 | CCCc1c(OCCCn2ccc3c(OCC(=O)O)cccc32)ccc2cc(C(=O)c3ccccc3)ccc12
Agonist | 6.91 | < 5.00 | 6.19 | CCCc1c(OCCCn2ccc3cc(OC(C)(C)C(=O)O)ccc32)ccc2cc(C(=O)c3ccccc3)ccc12

SMILES | Activity [1] | pEC50 [2] | pEC50 [3] | pEC50 [4]
CCCc1c(OCCCn2ccc3c(OC(C)(C)C(=O)O)cccc32)ccc2cc(C(=O)c3ccccc3)ccc12 | Agonist | 6.55 | 5.37 | 6.68
